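96-well plates; 48 h exposure; 5 concentrations. Endpoints by linear interpolation between flanking doses. Not reached: highest tested concentration assigned. GI50 = concentration required for 50% inhibition of growth. At the TGI there is no net growth.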
What was measured:
Experiment in all cases: NCI-60 cell line screen, 48 h
HT29 colon = tested on: HT29 colon
M14 melanoma = tested on: M14 melanoma
786-0 renal = tested on: 786-0 renal
SW-620 colon = tested on: SW-620 colon
SNB-19 CNS = tested on: SNB-19 CNS
SF-295 CNS = tested on: SF-295 CNS
IGROV1 ovarian = tested on: IGROV1 ovarian
U251 CNS = tested on: U251 CNS
SNB-75 CNS = tested on: SNB-75 CNS
DU-145 prostate = tested on: DU-145 prostate

SMILES	TGI (HT29 colon) [µM]	TGI (M14 melanoma) [µM]	TGI (786-0 renal) [µM]	TGI (SW-620 colon) [µM]	TGI (SNB-19 CNS) [µM]	TGI (SF-295 CNS) [µM]	TGI (IGROV1 ovarian) [µM]	TGI (U251 CNS) [µM]	GI50 (HT29 colon) [µM]	GI50 (M14 melanoma) [µM]	GI50 (786-0 renal) [µM]	GI50 (SW-620 colon) [µM]	GI50 (SNB-19 CNS) [µM]	GI50 (SF-295 CNS) [µM]	GI50 (IGROV1 ovarian) [µM]	GI50 (SNB-75 CNS) [µM]	TGI (SNB-75 CNS) [µM]	GI50 (U251 CNS) [µM]	GI50 (DU-145 prostate) [µM]	TGI (DU-145 prostate) [µM]
Cc1cn(C2CC(O)C(COC(=O)c3ccccc3)O2)c(=O)[nH]c1=O (centres undefined)	> 100	> 100	> 100	> 100	> 100	> 100	> 100	> 100	–	–	–	–	–	–	–	–	–	–	–	–
COC(=O)C(Cc1cc(OC)c(OC)c(OC)c1)C(=O)OC	> 320	–	> 320	> 320	–	> 320	> 320	> 320	–	–	–	–	–	–	–	–	–	–	–	–
N.N.N.N.N.[Co+3].[I-].[N-]=[N+]=[N-]	> 100	> 100	> 100	> 100	> 100	> 100	> 100	> 100	> 100	> 100	> 100	> 100	> 100	> 100	> 100	76.9	> 100	> 100	–	–
N#CCCN(c1ccc(C=Nc2ccccc2)cc1)S(=O)(=O)c1ccccc1	> 100	> 100	> 100	> 100	> 100	> 100	> 100	–	–	–	–	–	–	–	–	–	> 100	–	–	–
N#Cc1cccc2c1Nc1ccccc1S2	> 100	> 100	> 100	> 100	> 100	> 100	> 100	> 100	–	–	–	–	–	–	–	–	> 100	–	–	–
CN1c2ccccc2N(C(=O)c2ccc([N+](=O)[O-])cc2)C(CC(=O)O)c2cccn21 (centres undefined)	> 100	> 100	> 100	> 100	> 100	> 100	> 100	–	–	–	–	–	–	–	–	–	> 100	–	–	–
NNC(=S)N/N=C(\C(=O)Nc1cccc(O)c1)C1C(=O)NC(=S)NC1=O	> 100	> 100	> 100	> 100	> 100	> 100	> 100	> 100	–	–	–	–	–	–	–	–	> 100	–	–	–
COC(=O)CCC(NC(=S)N/N=C(\C)c1cnc2ccccc2n1)C(=O)OC (centres undefined)	31.3	> 100	> 100	> 100	> 100	> 100	> 100	> 100	–	–	–	–	–	–	–	–	> 100	–	–	–
Cn1c2c(c3ccccc31)CCN(CCCCN1CCCCC1)C2=O	> 100	> 100	> 100	> 100	> 100	> 100	> 100	> 100	–	–	–	–	–	–	–	–	–	–	–	–
O=C(N/C(=C\c1ccc(Cl)cc1)c1nc2ccccc2[nH]1)c1ccccc1	81.3	34.1	43.9	64	88	–	60	53.1	–	–	–	–	–	–	–	–	47.2	–	–	–
CCN(CC)c1cccc2c1/C(=N/O)CCCC2	> 100	–	> 100	> 100	> 100	> 100	–	> 100	–	–	–	–	–	–	–	–	> 100	–	–	–
CC(C)OP(=O)(OC(C)C)/C(Cl)=N/Nc1ccc([N+](=O)[O-])cc1	–	> 100	> 100	> 100	> 100	–	–	> 100	–	–	–	–	–	–	–	–	> 100	–	–	–
O=C(CC(Cl)=C(Cl)Cl)Nc1ccccc1	> 100	> 100	> 100	> 100	> 100	–	> 100	> 100	> 100	> 100	> 100	> 100	> 100	–	> 100	–	–	> 100	> 100	> 100
C/C(=C1/N=C(c2cc([N+](=O)[O-])ccc2Cl)N(c2cccc(C)c2)C1=O)c1cc2ccccc2oc1=O	> 100	> 100	> 100	> 100	> 100	> 100	> 100	–	–	–	–	–	–	–	–	–	> 100	–	–	–
CN(CCN1C(=O)c2cc([N+](=O)[O-])cc3cc([N+](=O)[O-])cc(c23)C1=O)CCN1C(=O)c2cc([N+](=O)[O-])cc3cc([N+](=O)[O-])cc(c23)C1=O	> 100	9.23	13.7	16.7	> 100	> 100	5.51	> 100	–	–	–	–	–	–	–	–	> 100	–	–	–
O=C1C2Nc3ccccc3SC2C(=O)N1c1ccc(Br)cc1 (centres undefined)	> 100	> 100	46.6	> 100	> 100	> 100	> 100	–	–	–	–	–	–	–	–	–	60.7	–	–	–
CN1C(=O)CCC1(O)C1C=CC=CC1 (centres undefined)	> 100	> 100	> 100	> 100	> 100	> 100	> 100	> 100	–	–	–	–	–	–	–	–	> 100	–	–	–
